Values quoted from earlier work in patent US7300682B2, “Method of preparation and use of coconut water in mamalian tissue nourishment growth and healthy maintenance” (Sabinsa Corporation, priority 2000, dated 2007).

Tested on: Abelmoschus esculetus L and Solanum gilo L
Conditions: 100 mg/L

C=C1C[C@]23C[C@@]1(O)CC[C@H]2[C@@]12C=C[C@H](O)[C@@](C)(C(=O)O1)[C@H]2[C@@H]3C(=O)O [GA3, gibberelic acid]
effect on plant height, yield, chlorophyll and vitamin contents: significantly effective
